Measured values taken from patent US20170008888A1 (KYORIN PHARMACEUTICAL CO., LTD., priority 2014, published 2017).
Like-named read-outs stand apart in the source and are kept apart here.

Experiments:
Assay type in all cases: binding
ABL or ARG = experiment: Probe-based (AX9989) kinase profiling in Jurkat lysate: ABL or ARG
Method in brief: (§1)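 Read-out: LC/MS intensity of desthiobiotinylated kinase active-site peptides, percent inhibition normalized to no-compound lysate. Jurkat lysate with 20 mM MnCl2 received compound for 15 min at room temperature, then 5 μM AX9989 probe; duplicates.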

TAO2 = molecular target: T1, TAO2 (Homo sapiens, UniProt Q9UL54); experiment: Probe-based (AX9989) kinase profiling in Jurkat lysate: TAO2
T1 construct: screened for activity against several kinases in Jurkat cells; endogenous in cells; host or cells: Jurkat cell lysate
T1 sequence (Q9UL54 1-1235): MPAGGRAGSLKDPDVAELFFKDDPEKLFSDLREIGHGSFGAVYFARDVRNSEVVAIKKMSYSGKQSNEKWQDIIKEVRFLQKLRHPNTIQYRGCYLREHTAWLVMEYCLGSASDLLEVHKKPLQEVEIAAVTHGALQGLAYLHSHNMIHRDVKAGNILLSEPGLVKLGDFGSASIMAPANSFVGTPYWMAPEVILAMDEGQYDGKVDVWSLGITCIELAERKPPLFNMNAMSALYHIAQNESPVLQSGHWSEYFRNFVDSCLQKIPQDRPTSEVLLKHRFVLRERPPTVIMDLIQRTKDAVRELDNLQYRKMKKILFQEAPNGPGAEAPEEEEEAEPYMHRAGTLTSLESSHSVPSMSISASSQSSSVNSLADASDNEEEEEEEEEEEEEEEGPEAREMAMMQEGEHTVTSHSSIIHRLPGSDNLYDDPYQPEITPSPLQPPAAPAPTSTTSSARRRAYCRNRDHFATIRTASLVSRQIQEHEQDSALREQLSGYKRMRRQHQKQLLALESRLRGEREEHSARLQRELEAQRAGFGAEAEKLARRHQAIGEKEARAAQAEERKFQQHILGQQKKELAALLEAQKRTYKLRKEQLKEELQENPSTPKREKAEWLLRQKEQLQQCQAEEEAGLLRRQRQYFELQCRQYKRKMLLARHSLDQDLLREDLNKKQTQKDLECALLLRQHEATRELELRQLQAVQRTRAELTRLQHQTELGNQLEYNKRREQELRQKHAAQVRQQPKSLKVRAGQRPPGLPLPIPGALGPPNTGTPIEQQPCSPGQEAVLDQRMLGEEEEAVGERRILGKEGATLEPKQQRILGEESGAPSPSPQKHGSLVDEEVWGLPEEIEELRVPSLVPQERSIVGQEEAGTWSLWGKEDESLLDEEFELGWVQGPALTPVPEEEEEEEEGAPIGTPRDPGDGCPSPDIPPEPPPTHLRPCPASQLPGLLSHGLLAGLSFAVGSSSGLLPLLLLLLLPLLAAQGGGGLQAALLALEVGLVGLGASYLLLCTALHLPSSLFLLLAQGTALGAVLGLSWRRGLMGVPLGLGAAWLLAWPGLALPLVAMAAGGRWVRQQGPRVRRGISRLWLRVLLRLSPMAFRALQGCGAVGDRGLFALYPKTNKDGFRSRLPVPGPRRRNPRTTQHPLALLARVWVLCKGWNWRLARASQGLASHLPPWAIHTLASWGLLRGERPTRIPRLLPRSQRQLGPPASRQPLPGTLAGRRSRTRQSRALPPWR
Method in brief: as §1

[1] = molecular target: T2, BRD4 bromodomain domain I [BRD4(1)] (Homo sapiens, UniProt O60885); experiment: BRD4 bromodomain domain 1 inhibition assay (TR-FRET); conditions: for inhibition at 10 µM: screening concentration 10 μM
T2 construct: BRD4 bromodomain domain I [BRD4(1)]; purchased Cayman Chemicals
Method in brief: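 0.5% DMSO, in triplicate, using Cayman BRD4(1) TR-FRET protocol with slight modification. 670/620 nm ratio normalized to 10 μM JQ1, with DMSO control set as 0% inhibition.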

AMPKa1 or AMPKa2 = experiment: Probe-based (AX9989) kinase profiling in Jurkat lysate: AMPKa1 or AMPKa2
Method in brief: as §1

[2] = screening concentration 10.0 μM
[3] = screening concentration 1.0 μM, read-out: Kinase inhibition % at indicated screening concentration: TAO2
[4] = screening concentration 1 μM, read-out: TAO2 Inhibition % at indicated screening concentration

Row | inhibition at 10 µM [1] | ABL or ARG Inhibition % at indicated screening concentration (ABL or ARG; screening concentration 1 μM) | inhibition at 1 µM (TAO2; [4]) | AMPKa1 or AMPKa2 Inhibition % at indicated screening concentration (AMPKa1 or AMPKa2; screening concentration 1 μM) | Structure (SMILES) | further results
1 | > 85% | – | – | – | CCOc1cc(C(=O)N2CCOCC2)ccc1Nc1cc2c(cn1)N(C)C(=O)c1ccccc1N2C [Compound 111] | Kinase inhibition % at indicated screening concentration: ABL or ARG (ABL or ARG; screening concentration 1.0 μM): E (E is ≦35%); inhibition at 1 µM (TAO2; [3]): ≤ 35%; Kinase inhibition % at indicated screening concentration: AMPKa1 or AMPKa2 (AMPKa1 or AMPKa2; screening concentration 1.0 μM): E (E is ≦35%)
2 | 70 to 85% | – | – | – | CCOc1cc(C(=O)N2CC[C@@H](N(C)C)C2)ccc1Nc1cc2c(cn1)N(C)C(=O)c1ccccc1N2C [Compound 115] | Kinase inhibition % at indicated screening concentration: ABL or ARG (ABL or ARG; screening concentration 1.0 μM): E (E is ≦35%); inhibition at 1 µM (TAO2; [3]): ≤ 35%; Kinase inhibition % at indicated screening concentration: AMPKa1 or AMPKa2 (AMPKa1 or AMPKa2; screening concentration 1.0 μM): E (E is ≦35%)
3 | > 85% | E (E is ≦35%) | ≤ 35% | E (E is ≦35%) | CCOc1cc(C(=O)N2CCC(NC(C)C)C2)ccc1Nc1cc2c(cn1)N(C)C(=O)c1ccccc1N2C (centres unmarked) [Compound T4] | –
4 | 70 to 85% | E (E is ≦35%) | ≤ 35% | E (E is ≦35%) | CCOc1cc(C(=O)N2C[C@H]3CCN[C@H]3C2)ccc1Nc1cc2c(cn1)N(C)C(=O)c1ccccc1N2C [Compound T5] | –
5 | 70 to 85% | E (E is ≦35%) | ≤ 35% | E (E is ≦35%) | CCOc1cc(C(=O)N2CC[C@@H](NCCF)C2)ccc1Nc1cc2c(cn1)N(C)C(=O)c1ccccc1N2C [Compound T9] | –
6 | < 70% | E (E is ≦35%) | ≤ 35% | E (E is ≦35%) | CCOc1cc(C(=O)N2CC[C@H](C#N)C2)ccc1Nc1cc2c(cn1)N(C)C(=O)c1ccccc1N2C [Compound T22] | –
7 | > 85% | E (E is ≦35%) | ≤ 35% | E (E is ≦35%) | CCOc1cc(C(=O)N2CCC(NC3CCN(C)CC3)C2)ccc1Nc1cc2c(cn1)N(C)C(=O)c1ccccc1N2C (centres unmarked) [Compound T42] | –
8 | > 85% | E (E is ≦35%) | ≤ 35% | E (E is ≦35%) | CC(C)Oc1cc(C(=O)N2CC[C@@H](NCCF)C2)ccc1Nc1cc2c(cn1)N(C)C(=O)c1ccccc1N2C [Compound T50] | –

The remaining lines, values behind:

Row | Structure (SMILES) | inhibition at 10 µM [1] | ABL or ARG Inhibition % at indicated screening concentration (ABL or ARG; screening concentration 1 μM) | inhibition at 1 µM (TAO2; [4]) | AMPKa1 or AMPKa2 Inhibition % at indicated screening concentration (AMPKa1 or AMPKa2; screening concentration 1 μM) | further results
9 | CN1C(=O)c2ccccc2N(C)c2cc(Nc3ccc(C(=O)N4CC[C@@H](N(C)C)C4)cc3F)ncc21 [Compound 110] | < 70% | – | – | – | Kinase inhibition % at indicated screening concentration: ABL or ARG (ABL or ARG; [2]): E (E is ≦35%); inhibition at 10 µM (TAO2; screening concentration 10.0 μM, read-out: Kinase inhibition % at indicated screening concentration: TAO2): 50 to 75%; Kinase inhibition % at indicated screening concentration: AMPKa1 or AMPKa2 (AMPKa1 or AMPKa2; [2]): E (E is ≦35%)
10 | CCOc1cc(C(=O)N2CC(N3CCCCC3)C2)ccc1Nc1cc2c(cn1)N(C)C(=O)c1ccccc1N2C [Compound 114] | > 85% | – | – | – | Kinase inhibition % at indicated screening concentration: ABL or ARG (ABL or ARG; screening concentration 0.1 μM): E (E is ≦35%); inhibition at 0.1 µM (TAO2; screening concentration 0.1 μM, read-out: Kinase inhibition % at indicated screening concentration: TAO2): ≤ 35%; Kinase inhibition % at indicated screening concentration: AMPKa1 or AMPKa2 (AMPKa1 or AMPKa2; screening concentration 0.1 μM): E (E is ≦35%)
11 | CCOc1cc(C(=O)N2CCC(CN3CCOCC3)CC2)ccc1Nc1cc2c(cn1)N(C)C(=O)c1ccccc1N2C [Compound 120] | > 85% | – | – | – | Kinase inhibition % at indicated screening concentration: ABL or ARG (ABL or ARG; screening concentration 1.0 μM): E (E is ≦35%); inhibition at 1 µM (TAO2; [3]): ≤ 35%; Kinase inhibition % at indicated screening concentration: AMPKa1 or AMPKa2 (AMPKa1 or AMPKa2; screening concentration 1.0 μM): E (E is ≦35%)
12 | CCOc1cc(C(=O)N(CC)CCN(CC)CC)ccc1Nc1cc2c(cn1)N(C)C(=O)c1ccccc1N2C [Compound 122] | 70 to 85% | – | – | – | Kinase inhibition % at indicated screening concentration: ABL or ARG (ABL or ARG; screening concentration 1.0 μM): E (E is ≦35%); inhibition at 1 µM (TAO2; [3]): ≤ 35%; Kinase inhibition % at indicated screening concentration: AMPKa1 or AMPKa2 (AMPKa1 or AMPKa2; screening concentration 1.0 μM): E (E is ≦35%)
13 | CCOc1cc(C(=O)N2CCN(C3CCN(C)CC3)CC2)ccc1Nc1cc2c(cn1)N(C)C(=O)c1ccccc1N2C [Compound T8] | > 85% | E (E is ≦35%) | ≤ 35% | E (E is ≦35%) | –
14 | CCOc1cc(C(=O)N2CCC(N3CC[C@@H](O)C3)CC2)ccc1Nc1cc2c(cn1)N(C)C(=O)c1ccccc1N2C [Compound T10] | > 85% | E (E is ≦35%) | ≤ 35% | E (E is ≦35%) | –
15 | CCOc1cc(C(=O)N2CCC(N3CC[C@H](O)C3)CC2)ccc1Nc1cc2c(cn1)N(C)C(=O)c1ccccc1N2C [Compound T11] | > 85% | E (E is ≦35%) | ≤ 35% | E (E is ≦35%) | –
16 | CCOc1cc(C(=O)N2CCN(CCN(C)C)CC2)ccc1Nc1cc2c(cn1)N(C)C(=O)c1ccccc1N2C [Compound T14] | > 85% | E (E is ≦35%) | ≤ 35% | E (E is ≦35%) | –
17 | CCOc1cc(C(=O)N2CCN(CCN3CCOCC3)CC2)ccc1Nc1cc2c(cn1)N(C)C(=O)c1ccccc1N2C [Compound T15] | > 85% | E (E is ≦35%) | ≤ 35% | E (E is ≦35%) | –
18 | CCOc1cc(C(=O)N2CCN(C(C)=O)CC2)ccc1Nc1cc2c(cn1)N(C)C(=O)c1ccccc1N2C [Compound T18] | 70 to 85% | E (E is ≦35%) | ≤ 35% | E (E is ≦35%) | –
19 | CCOc1cc(C(=O)N2CC[C@@H](N3CCN(C)CC3)C2)ccc1Nc1cc2c(cn1)N(C)C(=O)c1ccccc1N2C [Compound T20] | – | E (E is ≦35%) | ≤ 35% | E (E is ≦35%) | inhibition at 5 µM ([1]; Screening concentration 5 μM): > 85%
20 | CCOc1cc(C(=O)N2CCC(N3CCCN(C)CC3)CC2)ccc1Nc1cc2c(cn1)N(C)C(=O)c1ccccc1N2C [Compound T31] | > 85% | E (E is ≦35%) | ≤ 35% | E (E is ≦35%) | –
21 | CN1CCN(C2CCN(C(=O)c3ccc(Nc4cc5c(cn4)N(C)C(=O)c4ccccc4N5C)c(OCCF)c3)CC2)CC1 [Compound T34] | 70 to 85% | E (E is ≦35%) | ≤ 35% | E (E is ≦35%) | –
22 | CC(C)Oc1cc(C(=O)N2CCC[C@H](O)C2)ccc1Nc1cc2c(cn1)N(C)C(=O)c1ccccc1N2C [Compound T48] | 70 to 85% | – | – | – | ABL or ARG Inhibition % at indicated screening concentration (ABL or ARG; screening concentration 10 μM): E (E is ≦35%); inhibition at 10 µM (TAO2; screening concentration 10 μM, read-out: TAO2 Inhibition % at indicated screening concentration): ≤ 35%; AMPKa1 or AMPKa2 Inhibition % at indicated screening concentration (AMPKa1 or AMPKa2; screening concentration 10 μM): E (E is ≦35%)
23 | CC(C)Oc1cc(C(=O)N2CCN(C3CCN(C)CC3)CC2)ccc1Nc1cc2c(cn1)N(C)C(=O)c1ccccc1N2C [Compound T49] | > 85% | E (E is ≦35%) | ≤ 35% | E (E is ≦35%) | –
